Data set [1] concerns MDA-MB-231 tumor xenograft. Description: triple negative breast cancer xenograft model. The class given is in vivo, BALB/c Nude Mice. Conditions: MDA-MB-231 xenograft; single treatment cycle.
Data set [2] relates to panel of cancer cell lines. Description: cytotoxicity across the tested cancer cell lines (summary statements). The data set is classed as cell-based, human. The method, then:
The IC50 values were obtained using the resazurin-based potency assay under anoxic (<0.01% O2) and/or normoxic conditions (21% O2). The hypoxia cytotoxicity ratio (HCR) is calculated as the ratio of IC50 value […] (HCR=IC50 normoxia/IC50 anoxia).
For anoxic condition, the complete medium for each cell line (25 ml in a T25 or 80 ml in a T80) was equilibrated in the anoxic chamber 48 h before use to allow an as large as possible interchange between media and atmosphere, agitating the flask once a day and just before use. The 96-well plates for cell seeding and the 96-well plates for preparation of a mother plate containing the compound to be tested (e.g. Cpd.11 Ms) at appropriate concentrations as well as disposable reagent reservoirs and pipet tips that are required for cell seeding under anoxic conditions were placed in anoxia at least 72 h before use. […]
Cell seeding was performed starting from a cell suspension (70% confluent flasks of cells). Appropriate cell numbers/volumes were used at the pre-determined cell density (typically 100 μl/well) as determined by performing a growth curve experiment were calculated. […]

The test system of data set [3] is SW1990. Description: in vitro cell culture sensitivity in anoxic conditions. The class given is cell-based, human.
The test system of data set [4] is pH2AX (Histone H2A.X, Phospho S139) in DMS 114 xenograft. Description: DNA damage by pH2AX staining with pimonidazole colocalization. The data set is classed as in vivo, BALB/c Nude Mice. Conditions: 6 hours post single 600 mg/kg. The protocol:
To evaluate the impact of Cpd.11 Ms treatment on the induction of DNA damage, histological analysis of pH2AX staining and investigated colocalization of pH2AX and pimonidazole staining was performed in the small cell lung cancer model, DMS 114. DNA damage was assessed at 6 hours post a single administration of Cpd.11 Ms at 600 mg/kg. Pimonidazole Hydrochloride and pH2AX (Histone H2A.X, Phospho S139) antibodies are commercially available (Anti-Pimonidazole Hydrochloride, HP FITC Mab-1, HPI Hypoxyprobe Inc; Anti-Histone H2A.X (Phospho S139) antibody [EP854 (2) Y] ChIP Grade, ab81299, Abcam). From each xenograft sample, 3 non-sequential, 5 μm section levels with 50 μm spacing between each level were obtained. From each level, two or three serial sections were produced and collected on two or three slides depending upon the staining required: i) H&E and Pimonidazole or ii) H&E, Pimonidazole and pH2AX. Sections were then dried overnight at ~37° C. prior to staining. The H&Es were performed on a Leica ST4040 staining platform using harris haematoxylin and 1% eosin. Following antigen retrieval and subsequent protein blocking, the pH2AX antibody was incubated on the study tissue sections at a concentration of 1:48000 for 60 minutes. Following quenching of endogenous Horse Radish Peroxidase (HRP) activity using 3% hydrogen peroxide (aqueous), binding of pH2AX was visualised using a polymer based HRP driven detection system and ImmPACT DAB chromogen giving a brown reaction product at the site of antibody binding. A haematoxylin nuclear counterstain was then applied to the tissue sections. The Pimonidazole (FITC conjugated) antibody was incubated on the study tissue sections at a concentration of 1:5000 for 60 minutes. Following quenching of endogenous Horse Radish Peroxidase (HRP) activity using 3% hydrogen peroxide (aqueous), binding of Pimonidazole was visualised using an HRP conjugated rabbit anti-FITC secondary antibody (HPI Hypoxyprobe Inc, anti-FITC-HRP) and ImmPACT DAB chromogen giving a brown reaction product at the site of antibody binding. […]

Data set [5] in a line: stability to gamma irradiation sterilization. The following applies: powder filled vial sterilized under gamma irradiation.

“Also recorded” adds a separate entry of the source.

Regarding `CCN1CCN(C(=O)c2cc(N(CCBr)CCOS(C)(=O)=O)c(S(C)(=O)=O)cc2[N+](=O)[O-])CC1.CS(=O)(=O)O` [Cpd.11 Ms, 4-(5-((2-bromoethyl) (2-((methylsulfonyl)oxy)ethyl)amino)-4-(methylsulfonyl)-2-nitrobenzoyl)-1-ethylpiperazin-1-ium methanesulfonate], the tumour growth result in data set [1] was “tumour growth rate reduction”. Besides, in data set [2] (across cell lines), the hypoxic cytotoxic ratio is recorded as at least 10. The “cytotoxicity against cancer cell lines resistant to cisplatin and/or chlorambucil” value in data set [2] (pre-clinical models) was “highly cytotoxic”. In addition, the “sensitivity in anoxic conditions in vitro” value in data set [3] is “highly Cpd.11 Ms-sensitive”. In addition, the “DNA damage (pH2AX) in normoxic areas, treated vs vehicle treated animals” value in data set [4] was “not statistically significantly different”. Also, the “DNA damage (pH2AX), hypoxic (pimonidazole positive) vs normoxic (pimonidazole negative) areas in treated animals” value in data set [4] (P=0.023, methanesulfonate, 600 mg/kg) is recorded as “significantly higher DNA damage; also recorded: mostly detected in the hypoxic areas”. For the same compound, the “DNA damage (pH2AX) in hypoxic (pimonidazole positive) areas, treated vs vehicle treated animals” value in data set [4] (P=0.038) is “significant increase in DNA damage”. Also, the “stability to sterilizing conditions” value in data set [5] is “sufficiently stable”.

(Values after patent US12708620B2, “Prodrugs and medical uses thereof” (priority 2018, dated 2026).)
